Laboratory results taken from paper PMC8262356, “SLC26A6-selective inhibitor identified in a small-molecule screen blocks fluid absorption in small intestine” (JCI Insight, 2021).

Experiments:
[1] = system: mouse distal colonic closed loops; assay: Closed distal colonic loop fluid absorption; assay type: in vivo; settings: 30 μM luminal
Method: For fluid absorption studies in colon, mice were given free access to 5% dextrose in water but not solid food for 48 hours. Mice were treated with 500 μL mineral oil twice a day rectally (final dose 16 h before surgery) during this period to evacuate the colon. Closed distal colonic loops (length 1.5–2 cm, 1 loop per mouse) were isolated as described previously ([7]). Loops were injected with 100 μL PBS with 30 μM PAT1inh-B01, 10 μM DRAinh-A270, or 10 μM tenapanor (or vehicle). In some experiments, 30 μM PAT1inh-B01 and 10 μM DRAinh-A270 were used together. Colonic loops were removed at 0 and 60 minutes (in separate mice), and loop length and weight were measured to quantify fluid absorption.

slc26a3 = target: T1, slc26a3 (Mus musculus, UniProt Q9WVC8); assay: Selectivity: Cl-/I- exchange in FRT cells coexpressing YFP and slc26a3; assay type: cell-based; settings: 25 μM
T1 construct: expressed in transfected cells; host or cells: FRT cells coexpressing YFP
T1 sequence (Q9WVC8 1-757): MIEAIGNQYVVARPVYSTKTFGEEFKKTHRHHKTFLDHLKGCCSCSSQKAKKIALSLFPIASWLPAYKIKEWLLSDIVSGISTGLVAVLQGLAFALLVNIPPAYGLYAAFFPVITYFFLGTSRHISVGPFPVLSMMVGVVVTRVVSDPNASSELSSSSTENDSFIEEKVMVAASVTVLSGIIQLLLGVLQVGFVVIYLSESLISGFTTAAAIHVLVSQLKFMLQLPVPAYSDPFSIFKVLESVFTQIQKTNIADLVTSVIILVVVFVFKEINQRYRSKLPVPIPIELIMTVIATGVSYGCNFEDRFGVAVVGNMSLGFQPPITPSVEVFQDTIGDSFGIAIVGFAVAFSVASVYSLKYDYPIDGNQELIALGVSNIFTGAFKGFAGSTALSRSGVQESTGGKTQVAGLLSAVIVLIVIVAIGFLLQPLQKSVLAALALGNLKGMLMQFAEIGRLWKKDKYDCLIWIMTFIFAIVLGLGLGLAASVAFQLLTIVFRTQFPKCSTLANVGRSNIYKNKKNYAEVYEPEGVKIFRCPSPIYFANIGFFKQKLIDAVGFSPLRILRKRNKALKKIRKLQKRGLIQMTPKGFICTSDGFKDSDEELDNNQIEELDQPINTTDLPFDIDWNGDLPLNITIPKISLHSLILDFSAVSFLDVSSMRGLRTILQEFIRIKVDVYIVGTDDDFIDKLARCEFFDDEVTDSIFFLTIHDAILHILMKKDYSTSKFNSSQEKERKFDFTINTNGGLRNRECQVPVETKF
Method: PAT1inh-B01 selectivity was studied by testing its effects on related SLC26A family anion transporters and the Cl^– channel TMEM16A. These measurements used a similar Cl^–/I^– exchange protocol, but FRT cells separately expressed each of the SLC26A family members or TMEM16A. […] PAT1inh-B01 selectivity was also tested by short-circuit current (Isc) in well-differentiated human bronchial epithelial (HBE) cells, which have a complex ion transport mechanism that includes cystic fibrosis transmembrane conductance regulator (CFTR), epithelial Na^+ channel (ENaC), and Ca^+2-activated chloride channels (CaCCs) ([13]). […] Potential PAT1inh-B01 cytotoxicity was studied in FRT cells.
Figure 3 PAT1inh-B01 selectivity and cytotoxicity. […] Cl^–/I^– exchange or I^– influx measured in FRT cells coexpressing YFP and SLC26A isoforms or TMEM16A, with data shown for 25 μM PAT1inh-B01, DMSO vehicle control, and 500 μM niflumic acid (positive control for SLC26A transporters) or 10 μM TMinh-23 (positive control for TMEM16A). […] (C) (left) Short-circuit current (Isc) in well-differentiated HBE cells measured in the absence (top) and presence (bottom) of 25 μM PAT1inh-B01. […]
YFP-based cellular assays of slc26a3, slc26a4, SLC26A9, and TMEM16A function were performed as described previously ([7]). […] The activities of ENaC, CFTR, and CaCC were determined using well-differentiated HBE cells as described previously ([13]). […]

inhibition of slc26a3 (slc26a3): did not significantly inhibit
SMILES: Cc1c(Br)c(C(F)(F)F)nn1CC(=O)N1CCc2nc3cc(-c4ccccc4)[nH]n3c(=O)c2C1 [PAT1inh-B01]
effect on colonic fluid absorption (loop weight-to-length ratio) [1]: did not inhibit
